Data set [1] is described as follows: Soluble amlodipine in isolated solids (purified water, pH 5.3, tumbled 66 hours, HPLC). Format: physicochemical. Conditions: pH 5.3, aqueous buffer, thermodynamic from solid. On the procedure: Batches 1A-1F had different amlodipine content in the supernatants than the amlodipine besylate control indicating formation of new salt forms. […] Aliquots of each solid were weighed into 15 mL polypropylene centrifuge tubes in duplicate except for batch 1A which was a single determination. Purified water was added to each tube and the pH of the resulting suspension adjusted to 5.3 with anhydrous citric acid or anhydrous sodium citrate powder as needed. A control was also prepared in duplicate containing only purified water and amlodipine besylate at pH 5.3. The tubes were capped, covered in foil to block light, and allowed to tumble end-over-end at ambient temperature for 66 hours. The suspensions were then filtered through 0.45 micron nylon filters and the resulting filtrates analyzed by HPLC for amlodipine content.

Data set [2] can be described thus: Amlodipine content in supernatant of amlodipine salt batches (0.45 micron filtration, HPLC). Conditions: batches prepared by mixing; ~10-fold molar salt forming agent; polysorbate 80 in water. Format: physicochemical. On the procedure:
Amlodipine salts were prepared according to the formulas in Table 1 and Table 2. The formulations in Table 1 were prepared by adding purified water to a glass container containing a magnetic stir-bar and mixing with an external magnetic stir-plate. The polysorbate 80 was added and allowed to dissolve with mixing for a minimum of 10 minutes. Amlodipine besylate was then added and dispersed in the solution with mixing for a minimum of 10 minutes. The salt forming agent was then added to the suspension and the resulting suspension was mixed for an additional 30 minutes. The amount of the added salt forming agent was approximately 10-fold the amount of amlodipine on a mole basis. A control formulation was prepared to provide a solubility value for amlodipine besylate.
The formulations in Table 2 were prepared by adding purified water to a glass container positioned in an ultrasonic bath. Mixing was initiated with an overhead mixer and impeller. The polysorbate 80 was added and allowed to dissolve with mixing for a minimum of 10 minutes. Amlodipine besylate was then added and dispersed in the solution with mixing for a minimum of 10 minutes. […]
An aliquot of each suspension was filtered through a 0.45 micron nylon filter and the supernatant analyzed by an HPLC method for amlodipine content. […] Detection was by UV absorbance at 237 nm.

In general, solubility refers to the dissolved amount per volume that the medium holds. The low end stands for a poorly soluble substance, the high end for a readily soluble substance. For the compound `CCOC(=O)C1=C(COCCN)NC(C)=C(C(=O)OC)C1c1ccccc1Cl` (stereo not drawn) [Control, Amlodipine besylate], the solubility at 66 h was 1080 µg/mL in data set [1] (Tube 1, pH adjusted to 5.3, ambient temperature) and 1080 µg/mL in data set [1] (Tube 2, pH adjusted to 5.3, ambient temperature). Moreover, the “Amlodipine content in supernatant” value in data set [2] was 4.80 mg/mL.

Values taken from patent US12383498B2, “Amlodipine formulations” (Azurity Pharmaceuticals, Inc., priority 2018, dated 2025).
